Experimental data from patent publication US7342011B2, “Rifamycin analogs and uses thereof” (priority 2003, dated 2008).
Values after ≈ are worked out from the molar mass of the structure shown.

Assays:
Assay type in all cases: cell-based
E. faecalis = test: MIC assay, E. faecalis
E. coli = test: MIC assay, E. coli
S. aureus = test: MIC assay, S. aureus
H. flu = test: MIC assay, H. flu
S. pneumo. = test: MIC assay, S. pneumo.

SMILES	MIC (μg/mL) E. faecalis (E. faecalis)	MIC (μg/mL) E. coli (E. coli)	MIC (μg/mL) S. aureus (S. aureus)	MIC (μg/mL) H. flu (H. flu)	MIC (μg/mL) S. pneumo. (S. pneumo.)
CO[C@H]1/C=C/O[C@@]2(C)Oc3c(C)c(O)c4c(=O)c(c5oc6cc(N7CCC(C)(N(C)C)CC7)cc(O)c6nc-5c4c3C2=O)NC(=O)/C(C)=C\C=C\[C@H](C)[C@H](O)[C@@H](C)[C@@H](O)[C@@H](C)[C@H](OC(C)=O)[C@@H]1C [Compound 71, 3′-hydroxy-5′-[4-methyl-4-N,N-dimethylamino-1-piperidinyl]benzoxazinorifamycin]	0.25 µg/mL (≈ 0.266 µM)	4 µg/mL (≈ 4.25 µM)	0.008 µg/mL (≈ 0.0085 µM)	0.5 µg/mL (≈ 0.531 µM)	0.00012 µg/mL (≈ 0.000128 µM)
CO[C@H]1/C=C/O[C@@]2(C)Oc3c(C)c(O)c4c(=O)c(c5oc6cc(N7CCC(C)(NC(C)=O)CC7)cc(O)c6nc-5c4c3C2=O)NC(=O)/C(C)=C\C=C\[C@H](C)[C@H](O)[C@@H](C)[C@@H](O)[C@@H](C)[C@H](OC(C)=O)[C@@H]1C [Compound 72, 3′-hydroxy-5′-[4-methyl-4-acetylamino-1-piperidinyl]benzoxazinorifamycin]	2 µg/mL (≈ 2.09 µM)	>8 µg/mL	0.008 µg/mL (≈ 0.00838 µM)	0.5 µg/mL (≈ 0.524 µM)	0.00025 µg/mL (≈ 0.000262 µM)
CO[C@H]1/C=C/O[C@@]2(C)Oc3c(C)c(O)c4c(=O)c(c5oc6cc(N7CCC(C)(N(C)C)CC7)cc(O)c6nc-5c4c3C2=O)NC(=O)/C(C)=C\C=C\[C@H](C)[C@H](O)[C@@H](C)[C@@H](O)[C@@H](C)[C@H](O)[C@@H]1C [Compound 73, 25-O-deacetyl-3′-hydroxy-5′-[4-methyl-4-N,N-dimethylamino-1-piperidinyl]benzoxazinorifamycin]	0.03 µg/mL (≈ 0.0334 µM)	2 µg/mL (≈ 2.22 µM)	0.002 µg/mL (≈ 0.00222 µM)	0.12 µg/mL (≈ 0.133 µM)	0.00025 µg/mL (≈ 0.000278 µM)
CO[C@H]1/C=C/O[C@@]2(C)Oc3c(C)c(O)c4c(=O)c(c5oc6cc(N7CC[C@@H](N(C)C)C7)cc(O)c6nc-5c4c3C2=O)NC(=O)/C(C)=C\C=C\[C@H](C)[C@H](O)[C@@H](C)[C@@H](O)[C@@H](C)[C@H](OC(C)=O)[C@@H]1C [Compound 75, 3′-hydroxy-5′-[(3R)-N,N-dimethylamino-1-pyrrolidinyl]benzoxazinorifamycin]	0.12 µg/mL (≈ 0.131 µM)	4 µg/mL (≈ 4.38 µM)	0.002 µg/mL (≈ 0.00219 µM)	0.25 µg/mL (≈ 0.274 µM)	0.00012 µg/mL (≈ 0.000131 µM)
CO[C@H]1/C=C/O[C@@]2(C)Oc3c(C)c(O)c4c(=O)c(c5sc6cc(N7CCN8CCC[C@H]8C7)ccc6nc-5c4c3C2=O)NC(=O)/C(C)=C\C=C\[C@H](C)[C@H](O)[C@@H](C)[C@@H](O)[C@@H](C)[C@H](OC(C)=O)[C@@H]1C [Compound 76, 5′-[(8aS)octahydropyrrolo[1,2-a]pyrazin-2-yl]benzthiazinorifamycin]	0.5 µg/mL (≈ 0.54 µM)	4 µg/mL (≈ 4.32 µM)	0.008 µg/mL (≈ 0.00865 µM)	0.25 µg/mL (≈ 0.27 µM)	0.00025 µg/mL (≈ 0.00027 µM)
